According to patent publication US20250171437A1 (Agios Pharmaceuticals,Inc., priority 2022, published 2025):

Target: T1, human PAH with the R408W mutation (A375 R408W cells) (Homo sapiens, UniProt P00439, R408W)
T1 construct: expressed in transfected cells
T1 sequence (P00439 1-452 R408W): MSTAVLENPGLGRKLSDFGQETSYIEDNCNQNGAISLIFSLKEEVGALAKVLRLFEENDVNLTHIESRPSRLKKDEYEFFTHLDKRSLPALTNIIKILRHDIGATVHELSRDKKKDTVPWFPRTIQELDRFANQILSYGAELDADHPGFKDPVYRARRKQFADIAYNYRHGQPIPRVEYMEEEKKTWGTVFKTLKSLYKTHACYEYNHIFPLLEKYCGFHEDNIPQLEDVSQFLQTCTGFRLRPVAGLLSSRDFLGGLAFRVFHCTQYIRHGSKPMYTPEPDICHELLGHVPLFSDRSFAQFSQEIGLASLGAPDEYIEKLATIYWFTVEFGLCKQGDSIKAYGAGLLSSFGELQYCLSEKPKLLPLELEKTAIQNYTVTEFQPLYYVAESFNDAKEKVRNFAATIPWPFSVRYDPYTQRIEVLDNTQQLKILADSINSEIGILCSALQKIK
Experiment: Cell Based Phenylalanine Flux Assay
Conditions: A375 R408W cells; 24 hrs with compound, then 20 μM sepiapterin and 800 μM 13C9,15N-Phenylalanine for 4 hours; 13C-Tyrosine by LC-MS; average where tested multiple times
Outline: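 AC50 is derived from LC-MS of 13C-tyrosine in the media after a 4 h pulse of 800 μM 13C9,15N-phenylalanine plus 20 μM sepiapterin. The A375 R408W PAH cells had received duplicate 10-point, 2-fold compound dilutions (0.5% DMSO) for 24 h beforehand.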

Row | Compound | AC50
1 | CC(C)(O)c1nc(C(F)F)c(C(=O)N2CCc3[nH]cnc3[C@@H]2c2nc3ccc(F)c(F)c3o2)o1 [Example 298, (R)-(4-(6,7-difluorobenzo[d]oxazol-2-yl)-6,7-dihydro-1H-imidazo[4,5-c]pyridin-5(4H)-yl)(4-(difluoromethyl)-2-(2-hydroxypropan-2-yl)oxazol-5-yl)methanone] | 1000 to 5000 nM
2 | CC(C)(O)c1nc(C(F)F)c(C(=O)N2CCc3[nH]cnc3[C@H]2c2nc3c(F)cc(F)cc3o2)o1 [Example 299, (S)-(4-(4,6-difluorobenzo[d]oxazol-2-yl)-6,7-dihydro-1H-imidazo[4,5-c]pyridin-5(4H)-yl)(4-(difluoromethyl)-2-(2-hydroxypropan-2-yl)oxazol-5-yl)methanone] | ≤ 500 nM
3 | CC(C)(O)c1nc(C(F)F)c(C(=O)N2CCc3[nH]cnc3[C@@H]2c2nc3c(F)cc(F)cc3o2)o1 [Example 300, (R)-(4-(4,6-difluorobenzo[d]oxazol-2-yl)-6,7-dihydro-1H-imidazo[4,5-c]pyridin-5(4H)-yl)(4-(difluoromethyl)-2-(2-hydroxypropan-2-yl)oxazol-5-yl)methanone] | 1000 to 5000 nM
4 | O=C(c1ocnc1C(F)F)N1CCc2[nH]cnc2[C@H]1c1nc2c(F)cc(F)cc2o1 [Example 301, (S)-(4-(4,6-difluorobenzo[d]oxazol-2-yl)-6,7-dihydro-1H-imidazo[4,5-c]pyridin-5(4H)-yl)(4-(difluoromethyl)oxazol-5-yl)methanone] | ≤ 500 nM
5 | O=C(c1ocnc1C(F)F)N1CCc2[nH]cnc2[C@@H]1c1nc2c(F)cc(F)cc2o1 [Example 302, (R)-(4-(4,6-difluorobenzo[d]oxazol-2-yl)-6,7-dihydro-1H-imidazo[4,5-c]pyridin-5(4H)-yl)(4-(difluoromethyl)oxazol-5-yl)methanone] | 1000 to 5000 nM
6 | O=C(c1nnc(-c2ccccn2)o1)N1CCc2[nH]cnc2[C@H]1c1nc2ccc(F)cc2o1 [Example 303, (S)-(4-(6-fluorobenzo[d]oxazol-2-yl)-6,7-dihydro-1H-imidazo[4,5-c]pyridin-5(4H)-yl)(5-(pyridin-2-yl)-1,3,4-oxadiazol-2-yl)methanone] | ≤ 500 nM
7 | O=C(c1nnc(-c2ccccn2)o1)N1CCc2[nH]cnc2[C@@H]1c1nc2ccc(F)cc2o1 [Example 304, (R)-(4-(6-fluorobenzo[d]oxazol-2-yl)-6,7-dihydro-1H-imidazo[4,5-c]pyridin-5(4H)-yl)(5-(pyridin-2-yl)-1,3,4-oxadiazol-2-yl)methanone] | 1000 to 5000 nM
8 | O=C(c1ocnc1C(F)F)N1CCc2[nH]cnc2[C@H]1c1nc2ccc(F)c(F)c2o1 [Example 305, (S)-(4-(6,7-difluorobenzo[d]oxazol-2-yl)-6,7-dihydro-1H-imidazo[4,5-c]pyridin-5(4H)-yl)(4-(difluoromethyl)oxazol-5-yl)methanone] | ≤ 500 nM
9 | O=C(c1ocnc1C(F)F)N1CCc2[nH]cnc2[C@@H]1c1nc2ccc(F)c(F)c2o1 [Example 306, (R)-(4-(6,7-difluorobenzo[d]oxazol-2-yl)-6,7-dihydro-1H-imidazo[4,5-c]pyridin-5(4H)-yl)(4-(difluoromethyl)oxazol-5-yl)methanone] | 1000 to 5000 nM
10 | CC(C)(O)c1nc(C(F)F)c(C(=O)N2CCc3[nH]cnc3[C@H]2c2nc3cc(F)cc(F)c3o2)o1 [Example 307, (S)-(4-(5,7-difluorobenzo[d]oxazol-2-yl)-6,7-dihydro-1H-imidazo[4,5-c]pyridin-5(4H)-yl)(4-(difluoromethyl)-2-(2-hydroxypropan-2-yl)oxazol-5-yl)methanone] | ≤ 500 nM
11 | CC(C)(O)c1nc(C(F)F)c(C(=O)N2CCc3[nH]cnc3[C@@H]2c2nc3cc(F)cc(F)c3o2)o1 [Example 308, (R)-(4-(5,7-difluorobenzo[d]oxazol-2-yl)-6,7-dihydro-1H-imidazo[4,5-c]pyridin-5(4H)-yl)(4-(difluoromethyl)-2-(2-hydroxypropan-2-yl)oxazol-5-yl)methanone] | ≤ 500 nM
12 | O=C(c1ocnc1C(F)F)N1CCc2[nH]cnc2[C@H]1c1nc2cc(F)cc(F)c2o1 [Example 309, (S)-(4-(5,7-difluorobenzo[d]oxazol-2-yl)-6,7-dihydro-1H-imidazo[4,5-c]pyridin-5(4H)-yl)(4-(difluoromethyl)oxazol-5-yl)methanone] | ≤ 500 nM
13 | O=C(c1ocnc1C(F)F)N1CCc2[nH]cnc2[C@@H]1c1nc2cc(F)cc(F)c2o1 [Example 310, (R)-(4-(5,7-difluorobenzo[d]oxazol-2-yl)-6,7-dihydro-1H-imidazo[4,5-c]pyridin-5(4H)-yl)(4-(difluoromethyl)oxazol-5-yl)methanone] | 500 to 1000 nM
14 | Cc1ccc2oc([C@@H]3c4nc[nH]c4CCN3C(=O)c3oc(C(C)(C)O)nc3C(F)F)nc2c1 [Example 311, (S)-(4-(difluoromethyl)-2-(2-hydroxypropan-2-yl)oxazol-5-yl)(4-(5-methylbenzo[d]oxazol-2-yl)-6,7-dihydro-1H-imidazo[4,5-c]pyridin-5(4H)-yl)methanone] | ≤ 500 nM
15 | Cc1ccc2oc([C@H]3c4nc[nH]c4CCN3C(=O)c3oc(C(C)(C)O)nc3C(F)F)nc2c1 [Example 312, (R)-(4-(difluoromethyl)-2-(2-hydroxypropan-2-yl)oxazol-5-yl)(4-(5-methylbenzo[d]oxazol-2-yl)-6,7-dihydro-1H-imidazo[4,5-c]pyridin-5(4H)-yl)methanone] | 500 to 1000 nM
16 | Cc1ccc2oc([C@@H]3c4nc[nH]c4CCN3C(=O)c3ccnn3C(F)F)nc2c1 [Example 313, (S)-(1-(difluoromethyl)-1H-pyrazol-5-yl)(4-(5-methylbenzo[d]oxazol-2-yl)-6,7-dihydro-1H-imidazo[4,5-c]pyridin-5(4H)-yl)methanone] | ≤ 500 nM
17 | Cc1ccc2oc([C@H]3c4nc[nH]c4CCN3C(=O)c3ccnn3C(F)F)nc2c1 [Example 314, (R)-(1-(difluoromethyl)-1H-pyrazol-5-yl)(4-(5-methylbenzo[d]oxazol-2-yl)-6,7-dihydro-1H-imidazo[4,5-c]pyridin-5(4H)-yl)methanone] | 500 to 1000 nM

Now from value to molecule:

Row | AC50 | Compound
18 | ≤ 500 nM | Cc1ccc2nc([C@@H]3c4nc[nH]c4CCN3C(=O)c3oc(C(C)(C)O)nc3C(F)F)oc2c1 [Example 315, (S)-(4-(difluoromethyl)-2-(2-hydroxypropan-2-yl)oxazol-5-yl)(4-(6-methylbenzo[d]oxazol-2-yl)-6,7-dihydro-1H-imidazo[4,5-c]pyridin-5(4H)-yl)methanone]
19 | 1000 to 5000 nM | Cc1ccc2nc([C@H]3c4nc[nH]c4CCN3C(=O)c3oc(C(C)(C)O)nc3C(F)F)oc2c1 [Example 316, (R)-(4-(difluoromethyl)-2-(2-hydroxypropan-2-yl)oxazol-5-yl)(4-(6-methylbenzo[d]oxazol-2-yl)-6,7-dihydro-1H-imidazo[4,5-c]pyridin-5(4H)-yl)methanone]
20 | ≤ 500 nM | Cc1ccc2nc([C@@H]3c4nc[nH]c4CCN3C(=O)c3ccnn3C(F)F)oc2c1 [Example 317, (S)-(1-(difluoromethyl)-1H-pyrazol-5-yl)(4-(6-methylbenzo[d]oxazol-2-yl)-6,7-dihydro-1H-imidazo[4,5-c]pyridin-5(4H)-yl)methanone]
21 | 500 to 1000 nM | Cc1ccc2nc([C@H]3c4nc[nH]c4CCN3C(=O)c3ccnn3C(F)F)oc2c1 [Example 318, (R)-(1-(difluoromethyl)-1H-pyrazol-5-yl)(4-(6-methylbenzo[d]oxazol-2-yl)-6,7-dihydro-1H-imidazo[4,5-c]pyridin-5(4H)-yl)methanone]
22 | 500 to 1000 nM | Cc1ccc2nc([C@@H]3c4nc[nH]c4CCN3C(=O)c3oc(C(C)(C)O)nc3C)oc2c1 [Example 319, (S)-(2-(2-hydroxypropan-2-yl)-4-methyloxazol-5-yl)(4-(6-methylbenzo[d]oxazol-2-yl)-6,7-dihydro-1H-imidazo[4,5-c]pyridin-5(4H)-yl)methanone]
23 | ≥ 5000 nM | Cc1ccc2nc([C@H]3c4nc[nH]c4CCN3C(=O)c3oc(C(C)(C)O)nc3C)oc2c1 [Example 320, (R)-(2-(2-hydroxypropan-2-yl)-4-methyloxazol-5-yl)(4-(6-methylbenzo[d]oxazol-2-yl)-6,7-dihydro-1H-imidazo[4,5-c]pyridin-5(4H)-yl)methanone]
24 | 500 to 1000 nM | Cn1ccc(-c2nnc(C(=O)N3CCc4[nH]cnc4[C@H]3c3nc4ccc(F)cc4o3)o2)n1 [Example 321, (S)-(4-(6-fluorobenzo[d]oxazol-2-yl)-6,7-dihydro-1H-imidazo[4,5-c]pyridin-5(4H)-yl)(5-(1-methyl-1H-pyrazol-3-yl)-1,3,4-oxadiazol-2-yl)methanone]
25 | 1000 to 5000 nM | Cn1ccc(-c2nnc(C(=O)N3CCc4[nH]cnc4[C@@H]3c3nc4ccc(F)cc4o3)o2)n1 [Example 322, (R)-(4-(6-fluorobenzo[d]oxazol-2-yl)-6,7-dihydro-1H-imidazo[4,5-c]pyridin-5(4H)-yl)(5-(1-methyl-1H-pyrazol-3-yl)-1,3,4-oxadiazol-2-yl)methanone]
26 | ≤ 500 nM | Cc1ccc2c(C(=O)N3CCc4[nH]cnc4[C@H]3c3nc4cccc(F)c4o3)cnn2c1 [Example 323, (S)-(4-(7-fluorobenzo[d]oxazol-2-yl)-6,7-dihydro-1H-imidazo[4,5-c]pyridin-5(4H)-yl)(6-methylpyrazolo[1,5-a]pyridin-3-yl)methanone]
